Measurements reported in ChEMBL document CHEMBL1201862, “PubChem BioAssay data set” (2004).
The source made the active and inactive calls.

How the values were obtained:
[1] = system: Streptococcus sp. 'group A'; test: Streptococcus pyogenes SK(-)GAS viability under kanamycin – luminescence, BacTiterGlo, confirmation, counter-screen for streptokinase expression inhibitor project, dose response (AID 1900); assay type: functional, organism-based
[2] = NIH3T3 cell viability loss – ATP luminescence, mouse fibroblasts, counter-screen, dose response (AID 2010); assay type: functional, cell-based;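 also: cells exposed to compound for about 90 hours before reading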
[3] = Luminescence Cell-Based Dose Retest to Confirm Inhibitors of Cancer Stem Cells. [Related pubchem assays (depositor defined):AID2717, AID2721]; assay type: functional; conditions: Homo sapiens
[4] = Trypanosoma cruzi growth suppression in host cells – NIH3T3 host cells, beta-gal luminescence, confirmation (AID 2044); assay type: functional, cell-based;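 also: intracellular parasites grown in NIH/3T3 mouse fibroblasts as host cells; luminescent beta-galactosidase reporter signal from transgenic T. cruzi replicating inside host cells; inhibitors lower the luminescence signal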
[5] = target: T1, Heat shock factor protein 1 (Mus musculus, UniProt P38532); test: enhancement of HSF1-driven luciferase signal – cell-based, NIH3T3, luminescence, dose retest, confirmation (AID 435004); assay type: functional;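 also: stress induced by proteasome inhibitor MG132 added 30 min after compound; luciferase reporter driven by HSF1 response element in NIH3T3 cells; actives raise luminescence as potentiators of the MG132 stress response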
T1 sequence (P38532 whole entry): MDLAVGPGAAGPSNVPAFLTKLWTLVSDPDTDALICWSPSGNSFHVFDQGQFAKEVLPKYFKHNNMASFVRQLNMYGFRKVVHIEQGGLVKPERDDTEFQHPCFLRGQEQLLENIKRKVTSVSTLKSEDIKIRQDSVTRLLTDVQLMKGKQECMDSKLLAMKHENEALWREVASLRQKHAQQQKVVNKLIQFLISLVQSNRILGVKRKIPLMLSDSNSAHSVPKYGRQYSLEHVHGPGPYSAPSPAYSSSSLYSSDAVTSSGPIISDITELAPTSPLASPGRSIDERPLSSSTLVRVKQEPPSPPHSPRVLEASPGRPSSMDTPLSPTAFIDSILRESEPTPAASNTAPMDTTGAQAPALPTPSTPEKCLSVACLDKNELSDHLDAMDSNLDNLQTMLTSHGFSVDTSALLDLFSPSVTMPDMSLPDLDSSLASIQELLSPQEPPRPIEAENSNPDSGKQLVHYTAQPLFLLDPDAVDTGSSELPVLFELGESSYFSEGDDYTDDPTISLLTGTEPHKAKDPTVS

[6] = system: Streptococcus; test: GAS UMAA2166 growth inhibition – luminescence, BacTiterGlo, counter-screen for streptokinase expression inhibitor project, dose response (AID 1915); assay type: functional, organism-based;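 also: potency for reduction of bacterial viability or growth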
[7] = system: Vero; test: mammalian cell viability reduction – secondary assay, cytotoxicity control for West Nile virus antiviral project, dose response (AID 1650); assay type: functional; conditions: Chlorocebus sabaeus
[8] = target: Paired box protein Pax-8 (Homo sapiens, UniProt Q06710); test: PAX8 transcriptional activity inhibition in RMG-I – RMG-I cells, luciferase, cherry-pick, dose response (AID 687027); assay type: functional, cell-based;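 also: luciferase reporter driven by Pax8 target thyroperoxidase promoter measured by SteadyGlo luminescence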
Sequence of Paired box protein Pax-8 (Q06710 whole entry): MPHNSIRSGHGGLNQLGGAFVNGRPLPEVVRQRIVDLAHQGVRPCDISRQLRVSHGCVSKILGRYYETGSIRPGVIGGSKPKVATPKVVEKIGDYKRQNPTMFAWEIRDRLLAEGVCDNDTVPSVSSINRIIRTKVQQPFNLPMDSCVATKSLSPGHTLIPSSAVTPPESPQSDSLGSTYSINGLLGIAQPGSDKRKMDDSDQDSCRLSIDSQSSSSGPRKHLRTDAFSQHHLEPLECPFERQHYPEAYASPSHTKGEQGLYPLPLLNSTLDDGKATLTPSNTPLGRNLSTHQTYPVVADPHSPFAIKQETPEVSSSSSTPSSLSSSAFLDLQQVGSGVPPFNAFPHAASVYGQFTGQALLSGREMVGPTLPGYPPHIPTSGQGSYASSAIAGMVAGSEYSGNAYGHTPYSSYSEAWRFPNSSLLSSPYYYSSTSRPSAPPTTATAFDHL

[9] = target: T2, Streptokinase A (Streptococcus pyogenes serotype M1, UniProt P10520); test: viability-normalized secreted streptokinase activity reduction – plasminogen activation absorbance, OD405, dose response (AID 1914); assay type: functional, Streptococcus pyogenes M1 GAS;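 also: secreted streptokinase activity via plasminogen activation per viability signal from cell pellet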
T2 sequence (P10520 whole entry): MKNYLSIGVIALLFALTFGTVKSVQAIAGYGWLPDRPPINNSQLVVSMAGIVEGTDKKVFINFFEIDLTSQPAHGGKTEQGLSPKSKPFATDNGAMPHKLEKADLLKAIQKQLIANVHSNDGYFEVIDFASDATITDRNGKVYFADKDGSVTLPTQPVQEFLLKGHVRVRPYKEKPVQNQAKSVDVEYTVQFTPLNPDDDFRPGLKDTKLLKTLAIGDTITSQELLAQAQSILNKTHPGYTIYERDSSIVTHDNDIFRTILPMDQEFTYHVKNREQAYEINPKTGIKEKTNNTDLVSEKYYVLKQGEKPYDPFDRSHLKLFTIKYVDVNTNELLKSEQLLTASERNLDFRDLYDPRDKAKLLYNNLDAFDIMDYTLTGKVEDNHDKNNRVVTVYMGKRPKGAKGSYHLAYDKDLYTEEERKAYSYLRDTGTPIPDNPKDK

[10] = target: T3, Estrogen receptor (Homo sapiens, UniProt P03372);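 also: potency for inhibiting coactivator peptide recruitment to the receptor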
T3 sequence (P03372 whole entry): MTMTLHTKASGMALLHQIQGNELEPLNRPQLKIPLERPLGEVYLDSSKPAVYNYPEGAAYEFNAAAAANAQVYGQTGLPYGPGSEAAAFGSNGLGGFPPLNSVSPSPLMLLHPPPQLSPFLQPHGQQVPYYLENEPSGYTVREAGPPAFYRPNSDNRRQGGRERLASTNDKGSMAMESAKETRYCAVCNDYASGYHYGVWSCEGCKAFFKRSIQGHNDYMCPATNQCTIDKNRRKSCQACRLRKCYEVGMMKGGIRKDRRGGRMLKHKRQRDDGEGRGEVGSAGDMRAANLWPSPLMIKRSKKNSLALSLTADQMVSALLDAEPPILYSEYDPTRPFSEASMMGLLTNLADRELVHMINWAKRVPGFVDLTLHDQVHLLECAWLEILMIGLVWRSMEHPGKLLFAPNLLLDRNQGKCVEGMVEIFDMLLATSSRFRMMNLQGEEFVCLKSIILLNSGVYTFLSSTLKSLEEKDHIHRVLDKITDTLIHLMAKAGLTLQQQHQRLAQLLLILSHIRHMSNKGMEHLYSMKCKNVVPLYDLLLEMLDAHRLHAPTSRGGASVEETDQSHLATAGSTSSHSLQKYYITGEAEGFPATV

[11] = target: T4, Leucine aminopeptidase (Plasmodium falciparum 3D7, UniProt Q8IL11); test: P. falciparum M17LAP inhibitors, primary screen, biochemical, fluorogenic H-Leu-NHMec substrate, 1536-well (AID 1619); assay type: functional
T4 sequence (Q8IL11 whole entry): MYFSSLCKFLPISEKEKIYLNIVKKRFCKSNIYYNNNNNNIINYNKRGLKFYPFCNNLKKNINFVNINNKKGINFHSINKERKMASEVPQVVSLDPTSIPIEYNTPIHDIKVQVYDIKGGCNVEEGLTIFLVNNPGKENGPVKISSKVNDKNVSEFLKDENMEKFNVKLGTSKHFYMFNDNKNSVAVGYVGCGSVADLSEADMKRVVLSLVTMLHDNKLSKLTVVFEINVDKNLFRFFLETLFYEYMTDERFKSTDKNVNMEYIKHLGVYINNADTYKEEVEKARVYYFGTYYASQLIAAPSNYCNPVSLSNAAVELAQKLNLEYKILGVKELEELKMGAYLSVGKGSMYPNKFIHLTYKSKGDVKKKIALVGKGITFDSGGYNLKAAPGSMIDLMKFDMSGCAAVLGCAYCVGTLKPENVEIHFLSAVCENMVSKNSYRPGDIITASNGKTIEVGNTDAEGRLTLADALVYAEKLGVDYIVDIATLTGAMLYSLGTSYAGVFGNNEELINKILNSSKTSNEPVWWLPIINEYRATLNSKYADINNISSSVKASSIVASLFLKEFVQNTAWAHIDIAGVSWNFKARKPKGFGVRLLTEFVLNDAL

[12] = Luminescence Cell-Based Dose Confirmation HTS to Identify Activators of 5'UTR Stem-Loop Driven Alpha-Synuclein mRNA Translation in H4 Neuroglioblastoma Cells. [Related pubchem assays: 1829 (Project Summary), 1814 (Primary HTS)]; assay type: functional
[13] = target: T5, Methionyl-tRNA synthetase, putative (Trypanosoma brucei brucei, UniProt Q38C91); assay type: functional, Trypanosoma brucei brucei strain 927/4 GUTat10.1
T5 sequence (Q38C91 whole entry): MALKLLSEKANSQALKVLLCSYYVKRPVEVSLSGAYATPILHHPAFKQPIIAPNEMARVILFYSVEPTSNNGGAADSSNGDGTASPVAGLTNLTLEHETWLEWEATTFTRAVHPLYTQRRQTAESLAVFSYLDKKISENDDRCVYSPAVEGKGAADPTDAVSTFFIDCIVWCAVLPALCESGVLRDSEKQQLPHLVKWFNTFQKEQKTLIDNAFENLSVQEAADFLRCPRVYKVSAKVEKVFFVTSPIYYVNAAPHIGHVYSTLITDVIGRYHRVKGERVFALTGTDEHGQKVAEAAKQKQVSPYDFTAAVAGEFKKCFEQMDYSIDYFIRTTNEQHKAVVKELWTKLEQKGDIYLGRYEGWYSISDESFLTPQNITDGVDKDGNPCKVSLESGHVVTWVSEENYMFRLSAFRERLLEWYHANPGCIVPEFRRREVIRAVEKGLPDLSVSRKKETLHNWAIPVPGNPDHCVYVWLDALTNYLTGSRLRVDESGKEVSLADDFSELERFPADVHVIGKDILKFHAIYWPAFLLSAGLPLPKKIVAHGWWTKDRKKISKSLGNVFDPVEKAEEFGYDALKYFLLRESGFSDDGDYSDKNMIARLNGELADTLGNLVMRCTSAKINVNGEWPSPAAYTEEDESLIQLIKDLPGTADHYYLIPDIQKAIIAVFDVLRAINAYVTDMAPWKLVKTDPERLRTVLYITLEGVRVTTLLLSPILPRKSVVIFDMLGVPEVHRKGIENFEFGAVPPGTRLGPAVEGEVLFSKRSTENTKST

[14] = system: H4; test: Luminescence Cell-Based Dose Response HTS to Identify Activators of 5'UTR Stem-Loop Driven Prion Protein mRNA Translation in H4 Neuroglioblastoma Cells. [Related pubchem assays: 1829 (Project Summary), 1814 (Primary HTS)]; assay type: functional; conditions: Homo sapiens
[15] = Counterscreen for inhibitors of Trypanosoma brucei methionyl tRNA synthetase (MetRS): Luminescence-based cell-based high throughput dose response assay to identify compounds that are cytotoxic to Jurkat human T lymphocyte cells.; assay type: functional
[16] = target: T5, Methionyl-tRNA synthetase, putative; assay type: functional, Trypanosoma brucei brucei strain 927/4 GUTat10.1; remark: listed apart in the source
[17] = Luminescence Cell-Based Dose Response HTS to Identify Activators of Luciferase Translation or Activity in H4 […] Cells. [Related pubchem assays: 1829 (Project Summary), 1814 (Primary HTS)]; assay type: functional
[18] = growth inhibition of PfATP4-mutant resistant parasites – NITD609-resistant line, SYBR Green, dry powder, dose response (AID 1159571); assay type: functional, cell-based;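 also: parasites synchronized at ring stage by sorbitol before testing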
[19] = Dd2 malaria parasite growth inhibition potency – SYBR Green, dry powder samples, dose response (AID 1159566); assay type: functional, cell-based;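 also: potency for growth inhibition with lower SYBR green DNA signal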
[20] = P. falciparum Dd2 growth inhibitors, dose response, SYBR Green, cherry-picked samples (AID 1159567); assay type: functional, cell-based
[21] = growth inhibition of yeast DHODH-expressing 3D7 parasites – SYBR Green, dry powder samples, dose response (AID 1159570); assay type: functional, cell-based;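 also: parasite growth measured after 72 hours of compound exposure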
[22] = blockade of melanocortin 4 receptor signaling – cell-based, plate reader, cherry pick, counter-screen for LGR2 antagonist project, dose response (AID 743444); assay type: functional;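 also: transfected HEK 293 cells stimulated with alpha-MSH peptide; potency of inhibitors of the alpha-MSH evoked signal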
[23] = toxicity toward HepG2 liver cells – cell-based, plate reader, cherry-pick, antagonist series, cytotoxicity control, dose response (AID 743416); assay type: functional
[24] = blockers of bursicon-stimulated LGR2 cAMP reporter – cell-based, HEK293, CRE-luciferase reporter, cherry pick, set 2, dose response (AID 743343); assay type: functional;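 also: transfected cells were stimulated with diluted bursicon conditioned medium after compound addition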

With `O=C(Nc1cccc(Cl)c1)Nc1csc([N+](=O)[O-])c1` the EC50 [1] was 9.68 µM (active), the EC50 [2] was > 60 µM (not active) and the AC50 [3] was 4.34 µM (active). For the same compound, the EC50 [4] was 3.47 µM (active), the EC50 [5] was 31.6 µM (active) and the EC50 [6] was 15.3 µM (active). The CC50 [7] was > 100 µM (active), the AC50 [8] was 11.6 µM (active) and the EC50 [9] was > 150 µM (not active).

For `O=C(NCC1CCCO1)C(=Cc1cccc([N+](=O)[O-])c1)C(=O)NCC1CCCO1` (centres undefined), the CC50 [7] was 23.6 µM (active) and the AC50 [8] was 3.43 µM (active).

For `CC1(C)CC(=O)c2cnc(NCC3CCCO3)nc2C1` (centres undefined), the IC50 [10] was > 50 µM (not active).

With `O=C(Nc1cccc(-c2cnc3ccccc3n2)c1)c1cccc(NC(=O)c2ccco2)c1` the IC50 [10] was 13.1 µM (active).

In the case of `CCOC(=O)c1c(NC(=O)CCS(=O)(=O)c2ccccc2)sc2c1CCN(C(C)C)C2`, the CC50 [7] was 69.1 µM (active).

For `CCOC(=O)c1c(NC(=O)CSc2nnc(C)c(=O)[nH]2)sc2c1CCC2`, the IC50 [11] was 7.77 µM (active).

For `CC(=O)NS(=O)(=O)c1ccc(NC(=O)c2cc(-c3ccc(C)cc3)nc3ccccc23)cc1`, the IC50 [11] was 13.7 µM (active).

In the case of `Cc1ccccc1Oc1cc(NC(=O)Cn2cnc([N+](=O)[O-])c2)cc([N+](=O)[O-])c1`, the EC50 [12] was > 120 µM (not active), the IC50 [13] was 52.5 µM (inactive) and the EC50 [14] was > 120 µM (not active). The IC50 [15] was 37.3 µM (inactive), the IC50 [16] was 51.3 µM (inactive) and the EC50 [17] was > 120 µM (not active).

In the case of `COc1ccc(-c2ccccc2[C@H]2[C@@H](C#N)N(C(=O)C3CCCCC3)[C@H]2CO)cc1`, the AC50 [18] was 5.94 µM (active), the AC50 [19] was 1.52 µM (active) and the AC50 [20] was 1.03 µM (active). For the same compound, the AC50 [21] was 1.38 µM (active).

For `COc1ccc(-n2nnnc2-c2nc3ccccc3s2)cc1`, the AC50 [22] was 7.96 µM (active), the AC50 [23] was > 52 µM (inactive) and the AC50 [24] was 6.52 µM (active).
